Test results as given in the Kinase Knowledgebase extract (Sharma et al. 2016).

Molecular target: MAPK14 (human) (UniProt Q16539)
Assay: Inhibition of LPS Stimulated TNF-alpha Production in THP-1 Cells
Settings: thp1

MAPK14 (human), sequence (Q16539 whole entry, looked up): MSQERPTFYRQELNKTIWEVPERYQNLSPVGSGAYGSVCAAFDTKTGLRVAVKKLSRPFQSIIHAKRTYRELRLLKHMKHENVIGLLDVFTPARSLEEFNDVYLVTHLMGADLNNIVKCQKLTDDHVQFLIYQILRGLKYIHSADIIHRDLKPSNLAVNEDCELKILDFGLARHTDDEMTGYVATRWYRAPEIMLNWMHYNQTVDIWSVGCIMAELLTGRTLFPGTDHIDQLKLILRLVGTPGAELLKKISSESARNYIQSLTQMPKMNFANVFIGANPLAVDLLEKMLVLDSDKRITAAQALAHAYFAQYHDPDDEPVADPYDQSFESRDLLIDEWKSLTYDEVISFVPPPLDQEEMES

Row | Structure (SMILES) | IC50
1 | CCc1nc(-c2ccc(Cl)cc2)c(-c2ccnc(NC(=O)c3ccccc3)c2)s1 | 15 nM
2 | CCCc1nc(-c2cccc(C)c2)c(-c2ccnc(N)c2)s1 | 2 nM
3 | CCc1nc(-c2cccc(Cl)c2)c(-c2ccnc(N[C@@H](C)c3ccccc3)c2)s1 | 57 nM
4 | COc1ccc(-c2nc(NC(=O)c3cccnc3)sc2-c2ccnc(NC(=O)c3cccnc3)c2)cc1 | 26 nM
5 | CCc1nc(-c2cccc(Cl)c2)c(-c2ccnc(NC(C)=O)c2)s1 | 120 nM
6 | Cc1cc(C)cc(-c2nc(N)sc2-c2ccnc(NCc3ccccc3)c2)c1 | 140 nM
7 | CNc1nc(-c2ccc(Cl)cc2)c(-c2ccncc2)s1 | 180 nM

Further molecules by falling IC50, results first:

Row | IC50 | Structure (SMILES)
8 | 140 nM | CNc1nc(-c2ccc(OC)cc2)c(-c2ccncc2)s1
9 | 82 nM | Cc1cccc(-c2nc(N(C)C(=O)c3ccc(C)nc3)sc2-c2ccnc(NC3CCCC3)c2)c1
10 | 55 nM | CCc1nc(-c2cccc(Cl)c2)c(-c2ccnc(NC3CCCCC3)c2)s1
11 | 46 nM | Cc1cccc(-c2nc(N)sc2-c2ccncc2)c1
12 | 21 nM | CCC(=O)Nc1cc(-c2sc(-c3ccc(S(C)(=O)=O)cc3)nc2-c2cccc(Cl)c2)ccn1
13 | 20 nM | Cc1cc(C)cc(-c2nc(N)sc2-c2ccnc(NC(=O)c3ccccc3)c2)c1
14 | 14 nM | COc1ccc(-c2nc(N)sc2-c2ccnc(NC(=O)c3ccccc3)c2)cc1
15 | 5.9 nM | CCc1nc(-c2cccc(C)c2)c(-c2ccnc(NC(=O)c3ccsc3)c2)s1
